Reference: US20060063747A1, “Paroxetine cholate or cholic acid derivative salts, and composition comprising paroxetine and cholic acid or derivative thereof” (priority 2004, published 2006)
Counter-ions that a name gives are not always drawn.

Assay: Stability comparison under severe conditions (0.3% hydrogen peroxide, 80° C., content by HPLC)
Format: physicochemical
Settings: for Drug content, 24 hrs / Drug content, 48 hrs / Drug content, 120 hrs / Drug content, Initial / Drug content, 72 hrs / Drug content, 144 hrs: 1 mg/mL in 0.3% hydrogen peroxide, chamber at 80° C.
Description: Each of the drugs shown in Table 5 was completely dissolved in a 0.3% hydrogen peroxide solution at a concentration of 1 mg/mL. While storage under stressed conditions at 80° C., changes in the contents of the drugs were monitored. The 0.3% hydrogen peroxide solution is a solution commonly used to quickly determine the stability of drugs and provides stressed conditions for artificial acceleration of the oxidation of the drugs. The content analysis was conducted by HPLC in accordance with the paroxetine content analysis defined in USP.

Compound | Drug content, 24 hrs [%] | Drug content, 48 hrs (hydrochloride) [%] | Drug content, 120 hrs (hydrochloride) [%] | Drug content, Initial [%] | Drug content, 48 hrs [%] | Drug content, 120 hrs [%] | Stability compared to other paroxetine salts (in words) (0.3% hydrogen peroxide, 80° C., HPLC) | Drug content, 72 hrs [%] | Drug content, 144 hrs [%]
Fc1ccc([C@@H]2CCNC[C@H]2COc2ccc3c(c2)OCO3)cc1 [Paroxetine HCl, paroxetine hydrochloride] | 84.5 | 53.8 | 13.4 | 100.0 |  |  |  |  | 
Fc1ccc([C@@H]2CCNC[C@H]2COc2ccc3c(c2)OCO3)cc1.O=C(O)[C@H]1OC(O)[C@H](O)[C@@H](O)[C@@H]1O [Paroxetine glucuronate] | 92.8 |  |  | 100.0 | 59.0 | 12.3 |  |  | 
C[C@H](CCC(=O)NCC(=O)O)[C@H]1CC[C@H]2[C@@H]3[C@H](O)C[C@@H]4C[C@H](O)CC[C@]4(C)[C@H]3C[C@H](O)[C@]12C.Fc1ccc([C@@H]2CCNC[C@H]2COc2ccc3c(c2)OCO3)cc1 [Paroxetine glycocholate, paroxetine glycocholate] | 96.8 |  |  | 100.0 | 89.6 | 54.3 | highly stable |  | 
Fc1ccc([C@@H]2CCNC[C@H]2COc2ccc3c(c2)OCO3)cc1.O=S(=O)(O)c1ccc2ccccc2c1 [Paroxetine napsylate] | 60.4 |  |  | 100.0 |  |  |  | 16.1 | 3.5
Fc1ccc([C@@H]2CCNC[C@H]2COc2ccc3c(c2)OCO3)cc1.Fc1ccc([C@@H]2CCNC[C@H]2COc2ccc3c(c2)OCO3)cc1.O.O=C(O)C(O)C(O)C(=O)O.O=C(O)C(O)C(O)C(=O)O [Paroxetine tartarate] | 81.3 |  |  | 100.0 |  |  |  | 28.3 | 4.8
paroxetine methanesulfonate | 74.4 |  |  | 100.0 | 31.8 |  |  | 16.6 | 
